What was measured:
[1] = tested on: imiquimod-induced psoriasis-like skin inflammation; test: Imiquimod-induced mouse model of psoriasis (PASI); assay type: in vivo, mice
Description: Healthy male BALB/c mice (18–20 g) were divided randomly into three groups of eight according to body weight using Excel™ (Office™; Microsoft). After 1 week of adaptive feeding, mice received a daily topical dose of 62.5 mg of 5% imiquimod cream ([…]; Aldara®; 3 M Pharmaceuticals, Maplewood, MN, USA) on the shaved back and left ear for 7 consecutive days. Control mice were treated similarly with vehicle cream (Vaseline lanette creme; Fagron, Amsterdam, the Netherlands). Mice in the treatment group were given QL-1200186 (5 mg/kg or 1 mg/kg) orally twice a day (p.o., b.i.d.).
The Psoriasis Area and Severity Index (PASI) consists of erythema, scaling and skin thickness measurements. Mice were evaluated from day 1 when imiquimod was given for 7 consecutive days. The thickness of the mouse skin was measured using a micrometer. The PK parameters were also measured.

Plasma protein binding = assay type: in vitro ADME
Description: The ADME properties of QL-1200186 in vitro were measured by the following assays: Caco-2 permeability assay, CYP inhibition assay, protein binding assay, and liver microsome assay. Each assay was performed as previously described.

TYK2/JAK1 [2] = test: IL-23 HEK293 reporter assay; assay type: cell-based, human
JAK1/JAK3 [3] = test: IL-2-stimulated pSTAT5 in human whole blood; assay type: cell-based
Description: With respect to IL-2-stimulated JAK1/3 activation in human whole blood cells, whole blood (50 μL) was preincubated with compounds for 30 min and then stimulated with IL-2 (20 ng/mL) for 15 min.
(§1) The stimulations stated above were terminated with prewarmed Lyse/Fix Buffer (558,049; BD Biosciences, San Jose, CA, USA) for 10 min. Cells were stained with an anti-cluster of differentiation (CD)3 fluorescein isothiocyanate (FITC) antibody (required for PBMCs but not for the other cell types), washed, and permeabilized on ice using Perm III Buffer (558,050; BD Biosciences) prior to staining with an Alexa Fluor 647 anti-phosphorylated (p)STAT5 (pY694) antibody for 30 min and analyzed by flow cytometry. Phosphorylation of STAT5 was quantified by the median fluorescence intensity (MFI) after gating on the CD3-positive population.

[4] = target: T1, human TYK2 pseudokinase domain (JH2) (Homo sapiens, UniProt P29597); test: TYK2 pseudokinase domain (JH2) binding assay, HTRF tracer competition
T1 construct: was added to the recombinant TYK2 pseudokinase domain
T1 sequence (P29597 589-875 limits assumed): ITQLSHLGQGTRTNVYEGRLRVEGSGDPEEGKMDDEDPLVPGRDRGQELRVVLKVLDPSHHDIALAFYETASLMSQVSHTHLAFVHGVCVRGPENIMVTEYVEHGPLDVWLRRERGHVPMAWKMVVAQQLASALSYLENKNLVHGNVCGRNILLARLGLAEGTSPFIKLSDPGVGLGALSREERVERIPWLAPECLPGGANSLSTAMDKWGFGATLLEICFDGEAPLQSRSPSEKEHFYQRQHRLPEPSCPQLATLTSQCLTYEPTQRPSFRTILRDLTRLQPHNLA
Description: An assay that measures the ability of a compound to bind to the TYK2 pseudokinase domain through competition with a tracer was employed. First, human polyhistidine-tag (his-tagged) TYK2 pseudokinase was added to different concentrations of QL-1200186. […] After 1 h at RT, the homogeneous time-resolved fluorescence (HTRF) signal was measured on a plate reader (Envision™; PerkinElmer, Waltham, MA, USA).

TYK2/JAK2 = test: IL-12/IL-18-induced IFNγ production in NK-92 cells, ELISA; assay type: cell-based, human
Description: The inhibitory effect of QL-1200186 on IL-12/IL-18-induced IFNγ production in NK cells or human whole blood was determined by enzyme-linked immunosorbent assay (ELISA). NK92 cells were stimulated with recombinant human IL-12 (2 ng/mL; 200–12; PeproTech, Cranbury, NJ, USA) and recombinant human IL-18 (5 ng/mL; 9124-IL-050/CF; R&D Systems, Minneapolis, MN, USA) with or without QL-1200186 for 24 h at 37 °C. For human whole blood cells, whole blood (200 μL) was preincubated with the compound for 1 h and then stimulated with recombinant human IL-12 (2 ng/mL) or recombinant human IL-18 (10 ng/mL) for 24 h. After centrifugation, the supernatant was collected, and IFNγ production in the supernatant was measured with human IFNγ ELISA kits according to the manufacturer’s instructions (Biolegend, 430,104).

[5] = tested on: IL-12/IL-18-driven IFNγ production; test: IL-12/IL-18-induced IFNγ release in mice; assay type: in vivo
Description: Healthy female, specific pathogen-free C57BL/6 mice (6–8 weeks) were intraperitoneally (i.p.) injected with IL-12 and IL-18 to drive IFNγ production. Mice were numbered, weighed and divided randomly into seven groups of five according to body weight using Excel™ (Office™; Microsoft, Redmond, WA, USA). One hour after drug administration, IL-12 (0.01 μg/mouse) was i.p. injected. One hour later, recombinant IL-18 (0.1 μg/mouse) was injected. Whole blood was collected 3 h later and centrifuged (300 g, 10 min, 4 °C), and serum was collected. IFNγ expression in serum was determined by a CBA Flex kit (BD Biosciences).

TYK2/JAK1 [6] = test: IFNα-induced pSTAT1 in CD19+ B cells of human PBMCs; assay type: cell-based
Description: The reaction was terminated by collecting cells for surface staining. Cells were stained with anti-CD3 FITC (300406; Biolegend, San Diego, CA, USA), anti-CD19 APC (555415; BD Biosciences) or aqua fluorescent reactive dye BV421 (L34966A; Invitrogen, Carlsbad, CA, USA) antibodies for 20 min. After washing, fixation buffer (557870; BD Biosciences) was added and incubated for 10 min. Cells were washed and permeabilized on ice using Perm III Buffer (558050; BD Biosciences). Cells were stained with PE anti-PSTAT1 antibody (562069; BD Biosciences) for 30 min and analyzed by flow cytometry.

TYK2/JAK1 [7] = test: IFNα-stimulated pSTAT5 in human PBMC (CD3+), FACS; assay type: cell-based
Description: With regard to IFNα-stimulated phosphorylation of STAT5 in human peripheral blood mononuclear cells (PBMCs), after incubation with QL-1200186 for 1 h, human PBMCs were stimulated with recombinant human IFNα (1000 U/mL; 11200–2; PBL Assay Science) for 30 min.
as §1

JAK1/JAK3 [8] = test: IL-2-stimulated pSTAT5 in human PBMC; assay type: cell-based; conditions: @10μM
Description: With regard to IL-2-stimulated JAK1/3 activation in human PBMCs, after 1 h of incubation with QL-1200186, human PBMCs were stimulated with human IL-2 (20 ng/mL; C013; Novoprotein) for 20 min.
as §1

JAK2/JAK2 = test: TPO-stimulated pSTAT3/STAT5 in platelets of human whole blood; assay type: cell-based
Description: Stimulation was terminated by adding Lyse/Fix buffer. Staining with BUV786 mouse anti-human CD61 antibody (744384; BD Biosciences) was carried out, followed by washing, permeabilization and staining with PE mouse anti-human STAT3 antibody (651004; BD Biosciences) and APC mouse anti-human STAT5 antibody (562076; BD Biosciences), as described above. The expression of p-STAT3 and STAT5 was quantified by the MFI after the number of CD61-positive platelets was optimized.

Which results are given for `CNC(=O)c1cnc2cc1Nc1cc(cc(-c3ccn(C)n3)c1OC)CCOCc1cccc(n1)N2` [QL-1200186, 5^6-methoxy-N-methyl-5^5-(1-methyl-1H-pyrazol-3-yl)-8-oxa-2,4-diaza-1(2,6),3(2,4)-dipyridina-5(1,3)-benzenacyclononaphane-3^5-carboxamide]?
psoriasis severity according to the thickness score ([1]; day 7): significantly alleviated psoriasis severity; psoriasis-like inflammatory symptoms (erythema, scaling, thickening; PASI) ([1]; vs imiquimod group, p.o., b.i.d., n = 8): significantly improved psoriasis-like inflammatory symptoms; PPB (%, free) (Plasma protein binding; Dog): 3.7%; PPB (%, free) (Plasma protein binding; Human): 0.844%; PPB (%, free) (Plasma protein binding; Monkey): 2.8%; PPB (%, free) (Plasma protein binding; Mouse): 0.201%; PPB (%, free) (Plasma protein binding; Rat): 1.3%; IC50 (TYK2/JAK1 [2]): 0.46 nM; activity in IL-2-mediated JAK1/JAK3 signaling (JAK1/JAK3 [3]): no activity; Selectivity fold (TYK2/JAK1) ([4]; TYK2 JH2 over JAK1 JH2 binding): 164 fold; IC50 ([4]; recombinant TYK2 JH2 domain): 0.06 nM; IC50 (TYK2/JAK2): 32.5 nM; inhibition of serum IFNγ production ([5]; oral 10 mg/kg): 97.8%; inhibition of serum IFNγ production ([5]; oral, 0.1 mg/kg): 77.1%; inhibition of serum IFNγ production ([5]; oral, 1 mg/kg): 86.9%; IC50 (TYK2/JAK1 [6]): 1.43 nM; IC50 (TYK2/JAK1 [7]): 7.26 nM; IL-2- pSTAT5 in PBMC (JAK1/JAK3) inhibition (JAK1/JAK3 [8]): ~18% inhibition @10μM; TPO-pSTAT3/STAT5 in human whole blood (JAK2/JAK2) inhibition (JAK2/JAK2; @10μM): no inhibition @10μM; activity in thrombopoietin (TPO)-induced JAK2/JAK2 signaling (JAK2/JAK2; human whole blood): no activity
